Experimental data published in patent publication US8101648B2, “Hydroxybenzamide derivatives and their use as inhibitors of HSP90” (Astex Therapeutics, Ltd., priority 2005, dated 2012).
Counter-ions that a name gives are not always drawn. Like-named read-outs stand apart in the source and are kept apart here.

Legend:
HCT116 cell line = assay: Anti-proliferative activity, Alamar Blue assay; assay type: cell-based, human
Experimental: The anti-proliferative activities of compounds of the invention can be determined by measuring the ability of the compounds to inhibition of cell growth in a number of cell lines such as the human colon cancer cell line HCT116. […] The method is based on the ability of viable cells to reduce resazurin to its fluorescent product resorufin. […] The number of viable cells is determined by Alamar Blue assay as before. Cell lines can be obtained from the ECACC (European Collection of cell Cultures).

[1] = target: T1, human Hsp90α N-terminal domain (Homo sapiens, UniProt P07900); assay: Isothermal titration calorimetry (ITC) binding; details: 25 mM Tris, 100 mM NaCl, 1 mM MgCl2, 1 mM TCEP, 5% DMSO, pH 7.4
T1 construct: Cloning, expression, and purification of the Human Hsp90α N-terminal domain were performed according to published methods; made in house
Experimental: The ability of the compounds of the invention to bind to human Hsp90 proteins was determined using isothermal titration calorimetry.
Isothermal titration calorimetry (ITC) experiments were performed with a VP-ITC titration calorimeter (Microcal Inc., Northampton, Mass., USA). […] All solutions were filtered and degassed prior to a titration being carried out. The enthalpy change resulting from each injection of ligand was obtained through integration of the calorimetric signal. Data were analysed using Origin 7.0 (Microcal Software Inc., Northampton, Mass.). Heats of dilution were estimated using the final injections of each individual titration and subtracted before data fitting. Different ITC experimental formats were employed in order to obtain compound dissociation constants (Kd's) over a wide range of affinities. […] In this type of experiment the stoichiometry parameter (N) was locked at 1 for data fitting. […] For the majority of these experiments the protein concentration in the calorimetric cell was in the range […] and the ligand concentration in the injection syringe ranged from […].

[2] = HCT-116, human colon cancer cell line HCT116, 72 hours with compound, read-out: IC50

Row | Compound | IC50 (HCT116 cell line; Homo sapiens, HCT-116, 72 h) | Kd [1] | IC50 (HCT116 cell line; [2])
1 | CC(C)c1cc(C(=O)N2Cc3ccccc3C2)c(O)cc1O [Example 5] | < 1000 nM |  | 
2 | CC(C)c1cc(C(=O)N2Cc3ccccc3C2)ccc1O [Example 10, (1,3-Dihydro-isoindol-2-yl)-(4-hydroxy-3-isopropyl-phenyl)-methanone] |  | < 100 nM | 
3 | CC(C)(C)c1cc(C(=O)N2CCc3ccccc3C2)ccc1O [Example 11, (3-tert-Butyl-4-hydroxy-phenyl)-(3,4-dihydro-1H-isoquinolin-2-yl)-methanone] |  | < 1000 nM | 
4 | O=C(c1cc(Br)c(O)cc1O)N1Cc2ccccc2C1 [Example 19, (5-Bromo-2,4-dihydroxy-phenyl)-(1,3-dihydro-isoindol-2-yl)-methanone] |  |  | < 1000 nM
5 | COCCOCCOc1cccc2c1CN(C(=O)c1cc(C(C)C)c(O)cc1O)C2 [Example 21, (2,4-Dihydroxy-5-isopropyl-phenyl)-{4-[2-(2-methoxy-ethoxy)-ethoxy]-1,3-dihydro-isoindol-2-yl}methanone] |  | < 100 nM | < 1000 nM
6 | COc1cc2c(cc1Cl)CN(C(=O)c1cc(C(C)C)c(O)cc1O)C2 [Example 33, (5-chloro-6-methoxy-1,3-dihydro-iso-indol-2-yl)-(2,4-dihydroxy-5-isopropyl-phenyl)-methanone] |  | < 100 nM | < 1000 nM
7 | CC(C)c1cc(C(=O)N2CC3CC2CO3)c(O)cc1O (stereo not shown) [Example 37, (2,4-dihydroxy-5-isopropyl-phenyl)-(2-oxa-5-aza-bicyclo[2.2.1]hept-5-yl)-methanone] |  | < 100 nM | < 1000 nM
8 | CC(C)c1cc(C(=O)N2CCc3ccccc3C2)c(O)cc1O [Example 38, (3,4-dihydro-1H-isoquinolin-2-yl)-(2,4-dihydroxy-5-isopropyl-phenyl)-methanone] |  | < 100 nM | < 1000 nM
9 | CC(C)c1cc(C(=O)N2Cc3ccc(N)cc3C2)c(O)cc1O [Example 39, (5-amino-1,3-dihydro-isoindol-2-yl)-(2,4-dihydroxy-5-isopropyl-phenyl)-methanone] |  | < 100 nM | < 1000 nM
10 | COc1ccc2c(c1)CN(C(=O)c1cc(C(C)C)c(O)cc1O)C2 [Example 40, (2,4-dihydroxy-5-isopropyl-phenyl)-(5-methoxy-1,3-dihydro-isoindol-2-yl)-methanone] |  | < 100 nM | < 1000 nM
11 | COC(=O)c1ccc2c(c1)CN(C(=O)c1cc(C(C)C)c(O)cc1O)C2 [Example 43, 2-(2,4-dihydroxy-5-isopropyl-benzoyl)-2,3-dihydro-1H-isoindole-5-carboxylic acid methyl ester] |  | < 100 nM | < 1000 nM
12 | CC(C)c1cc(C(=O)N2Cc3ccc(C(=O)O)cc3C2)c(O)cc1O [Example 44, 2-(2,4-dihydroxy-5-isopropyl-benzoyl)-2,3-dihydro-1H-isoindole-5-carboxylic acid] |  | < 100 nM | 
13 | CC(C)NCCOc1ccc2c(c1)CN(C(=O)c1cc(C(C)C)c(O)cc1O)C2 [Example 48, (2,4-dihydroxy-5-isopropyl-phenyl)-[5-(2-isopropylamino-ethoxy)-1,3-dihydro-isoindol-2-yl]-methanone] |  | < 100 nM | < 1000 nM
14 | CC(C)c1cc(C(=O)N2Cc3ccc(OCCNC(=O)CN4CCOCC4)cc3C2)c(O)cc1O [Example 49] |  | < 100 nM | < 1000 nM
15 | CC(C)c1cc(C(=O)N2Cc3ccc(N4CCC(N5CCN(C)CC5)CC4)cc3C2)c(O)cc1O [Example 51, (2,4-dihydroxy-5-isopropyl-phenyl)-{5-[4-(4-methyl-piperazin-1-yl)-piperidin-1-yl]-1,3-dihydro-isoindol-2-yl}-methanone] |  | < 100 nM | < 1000 nM
16 | CC(C)c1cc(C(=O)N2Cc3ccc(-c4ccc(N5CCNCC5)cc4)cc3C2)c(O)cc1O [Example 52, (2,4-dihydroxy-5-isopropyl-phenyl)-[5-(4-piperazin-1-yl-phenyl)-1,3-dihydro-isoindol-2-yl]-methanone] |  | < 1000 nM | < 1000 nM
17 | CC(C)c1cc(C(=O)N2Cc3ccc(C(=O)N4CCNCC4)cc3C2)c(O)cc1O [Example 54, (2,4-dihydroxy-5-isopropyl-phenyl)-[5-(piperazine-1-carbonyl)-1,3-dihydro-isoindol-2-yl]-methanone hydrochloride] | < 1000 nM | < 100 nM | 
18 | CC(C)c1cc(C(=O)N2Cc3ccc(CN4CCN(C)CC4)cc3C2)c(O)cc1O [Example 55, (2,4-dihydroxy-5-isopropyl-phenyl)-[5-(4-methyl-piperazin-1-ylmethyl)-1,3-dihydro-isoindol-2-yl]-methanone] |  | < 100 nM | < 1000 nM
19 | CC(C)c1cc(C(=O)N2Cc3ccc(N4CCN(CCO)CC4)cc3C2)c(O)cc1O [Example 59, (2,4-Dihydroxy-5-isopropyl-phenyl)-{5-[4-(2-hydroxy-ethyl)-piperazin-1-yl]-1,3-dihydro-isoindol-2-yl}-methanone] |  | < 100 nM | < 1000 nM
20 | CC(C)c1cc(C(=O)N2Cc3ccc(N4CCC(N5CCOCC5)CC4)cc3C2)c(O)cc1O [Example 60, (2,4-Dihydroxy-5-isopropyl-phenyl)-[5-(4-morpholin-4-yl-piperidin-1-yl)-1,3-dihydro-isoindol-2-yl]-methanone] |  | < 100 nM | < 1000 nM
21 | CC(C)c1cc(C(=O)N2Cc3ccc(N4CCN(C(C)C)CC4)cc3C2)c(O)cc1O [Example 62, (2,4-Dihydroxy-5-isopropyl-phenyl)-[5-(4-isopropyl-piperazin-1-yl)-1,3-dihydro-isoindol-2-yl]-methanone] |  | < 100 nM | < 1000 nM
22 | CC(C)c1cc(C(=O)N2Cc3cccc(NC4CCNCC4)c3C2)c(O)cc1O [Example 67, (2,4-dihydroxy-5-isopropyl-phenyl)-[4-(piperidin-4-ylamino)-1,3-dihydro-isoindol-2-yl]-methanone] |  | < 100 nM | < 1000 nM
23 | CC(C)c1cc(C(=O)N2Cc3ccc(CN4CCCCC4)cc3C2)c(O)cc1O [Example 72, (2,4-Dihydroxy-5-isopropyl-phenyl)-(5-piperidin-1-ylmethyl-1,3-dihydro-isoindol-2-yl)-methanone] |  | < 100 nM | < 1000 nM
24 | CC(C)c1cc(C(=O)N2Cc3ccc(C4(O)CCNCC4)cc3C2)c(O)cc1O [Example 73, (2,4-Dihydroxy-5-isopropyl-phenyl)-[5-(4-hydroxypiperidin-4-yl)-1,3-dihydro-isoindol-2-yl]-methanone] |  | < 100 nM | 
25 | CC(C)c1cc(C(=O)N2Cc3cc(O)c(Cl)cc3C2)c(O)cc1O [Example 74, (5-chloro-6-hydroxy-1,3-dihydro-isoindol-dihydroxy-5-isopropyl-phenyl)-methanone] |  | < 100 nM | < 1000 nM
26 | CN1CCN(c2ccc3c(c2)CN(C(=O)c2cc(Cl)c(O)cc2O)C3)CC1 [Example 75, (5-Chloro-2,4-dihydroxy-phenyl)-[5-(4-methyl-piperazin-1-yl)-1,3-dihydro-isoindol-2-yl]-methanone] |  | < 100 nM | < 1000 nM
